pKd: −log10 of the molar value. Where a SMILES comes first, the peptide text is derived from it. Bridges are numbered along the chain shown (N, C = ends). The star is where a group is joined. X5 = O=C(CCCCCn1cc(CCCC(=O)*)nn1)NC(COCc1cn(CCOCCOCCOCCOC[C@H]2OC[C@H](Nc3nccc(C(F)(F)F)n3)[C@@H](O)[C@H]2O)nn1)COCc1cn(CCOCCOCCOCCOC[C@H]2OC[C@H](Nc3nccc(C(F)(F)F)n3)[C@@H](O)[C@H]2O)nn1; PEG4 = NCCOCCOCCOCCOCCC(=O)O Some results are limits rather than exact numbers.

The experiment concerns the target T1, ASGPR (Homo sapiens, UniProt P07306).
T1 sequence (P07306 1-291): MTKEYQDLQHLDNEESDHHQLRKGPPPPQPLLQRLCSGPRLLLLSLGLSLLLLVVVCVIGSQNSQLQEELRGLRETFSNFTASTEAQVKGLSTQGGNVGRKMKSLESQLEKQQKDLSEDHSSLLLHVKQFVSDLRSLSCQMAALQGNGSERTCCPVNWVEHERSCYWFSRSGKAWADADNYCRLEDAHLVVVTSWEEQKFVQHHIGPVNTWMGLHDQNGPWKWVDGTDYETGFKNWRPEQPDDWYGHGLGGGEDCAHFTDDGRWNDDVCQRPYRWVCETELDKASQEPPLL
Put plainly: Affinity to ASGPR by surface plasmon resonance (SPR).

As usually defined, the pKd is the Kd on a negative log10 scale, so that one unit is a factor of ten. The low end stands for a high Kd, the high end for a low Kd. On to `N=C(N)N[C@H]1CO[C@H](COCc2ccccc2)[C@H](OCc2ccccc2)[C@@H]1OCc1ccccc1` [A73, 1-((3S,4R,5R,6R)-4,5-bis(benzyloxy)-6-((benzyloxy)methyl)tetrahydro-2H-pyran-3-yl)guanidine], for which the negative logarithm of the Kd (pKd) is less than 4.70.

The molecule `C=CCO[C@H]1O[C@H](Cn2cc(-c3cccc(OC)c3)nn2)[C@H](O)[C@H](O)[C@H]1NC(=O)C(F)(F)F` [A57, N-((2S,3R,4R,5R,6R)-2-(allyloxy)-4,5-dihydroxy-6-((4-(3-methoxyphenyl)-1H-1,2,3-triazol-1-yl)methyl)tetrahydro-2H-pyran-3-yl)-2,2,2-trifluoroacetamide] showed a negative logarithm of the Kd (pKd) of 5.00 to 6.00.

As to `OC[C@H]1OC[C@H](Nc2cc(C(F)(F)F)nc(Cl)n2)[C@@H](O)[C@H]1O` [A78, (2R,3R,4R,5S)-5-((2-chloro-6-(trifluoromethyl)pyrimidin-4-yl)amino)-2-(hydroxymethyl)tetrahydro-2H-pyran-3,4-diol], the pKd is less than 4.70.

On to `NC(=O)c1sc(N[C@H]2CO[C@H](CO)[C@H](O)[C@@H]2O)nc1C(F)(F)F` [A54, 2-(((3S,4R,5R,6R)-4,5-dihydroxy-6-(hydroxymethyl)tetrahydro-2H-pyran-3-yl)amino)-4-(trifluoromethyl)thiazole-5-carboxamide], for which the pKd is less than 4.70.

Consider `OC[C@H]1OC[C@H](Nc2nc(C(F)(F)F)ccc2F)[C@@H](O)[C@H]1O` [A77, (2R,3R,4R,5S)-5-((3-fluoro-6-(trifluoromethyl)pyridin-2-yl)amino)-2-(hydroxymethyl)tetrahydro-2H-pyran-3,4-diol], for which the pKd is greater than 6.00.

`O=C(NC[C@H]1OC[C@H](Nc2cncc(C(F)(F)F)n2)[C@@H](O)[C@H]1O)C12CC(C1)C2` [A102, N-(((2R,3R,4R,5S)-3,4-dihydroxy-5-((6-(trifluoromethyl)pyrazin-2-yl)amino)tetrahydro-2H-pyran-2-yl)methyl)bicyclo[1.1.1]pentane-1-carboxamide] showed a negative logarithm of the Kd (pKd) greater than 6.00.

`NC(COCCC(=O)NCCOCCOCCOCCOC[C@H]1OC[C@H](Nc2nccc(C(F)(F)F)n2)[C@@H](O)[C@H]1O)COCCC(=O)NCCOCCOCCOCCOC[C@H]1OC[C@H](Nc2nccc(C(F)(F)F)n2)[C@@H](O)[C@H]1O` [A13, 3,3′-((2-aminopropane-1,3-diyl)bis(oxy))bis(N-(1-((2R,3R,4R,5S)-3,4-dihydroxy-5-((4-(trifluoromethyl)pyrimidin-2-yl)amino)tetrahydro-2H-pyran-2-yl)-2,5,8,11-tetraoxatridecan-13-yl)propanamide)] gave a negative-log Kd (pKd) greater than 7.00.

The molecule `O[C@@H]1[C@H](O)[C@@H](Nc2cncc(C(F)(F)F)n2)CO[C@@H]1CNc1ccccc1` [A95, (2R,3R,4R,5S)-2-((phenylamino)methyl)-5-((6-(trifluoromethyl)pyrazin-2-yl)amino)tetrahydro-2H-pyran-3,4-diol] showed a pKd of 5.00 to 6.00.

As for `OCc1cn(C[C@H]2OC[C@H](Nc3nccc(C(F)(F)F)n3)[C@@H](O)[C@H]2O)nn1` [A68, (2R,3R,4R,5S)-2-((4-(hydroxymethyl)-1H-1,2,3-triazol-1-yl)methyl)-5-((4-(trifluoromethyl)pyrimidin-2-yl)amino)tetrahydro-2H-pyran-3,4-diol], the negative logarithm of the Kd (pKd) is greater than 6.00.

`OC[C@H]1OC[C@H](Nc2nccnc2C(F)(F)F)[C@@H](O)[C@H]1O` [A101, (2R,3R,4R,5S)-2-(hydroxymethyl)-5-((3-(trifluoromethyl)pyrazin-2-yl)amino)tetrahydro-2H-pyran-3,4-diol]: the pKd was 5.00 to 6.00.

`C[Si](C)(C)c1cn(C[C@H]2OC[C@H](Nc3nccc(C(F)(F)F)n3)[C@@H](O)[C@H]2O)nn1` [A66, (2R,3R,4R,5S)-5-((4-(trifluoromethyl)pyrimidin-2-yl)amino)-2-((4-(trimethylsilyl)-1H-1,2,3-triazol-1-yl)methyl)tetrahydro-2H-pyran-3,4-diol]: the negative-log Kd (pKd) was 5.00 to 6.00.

Consider `CCOC(=O)c1ccc(Cl)nc1N[C@H]1[C@H]2OC[C@](CO)(O2)[C@H](O)[C@@H]1O` [A112, ethyl 6-chloro-2-(((1S,2R,3R,4R,5S)-2,3-dihydroxy-1-(hydroxymethyl)-6,8-dioxabicyclo[3.2.1]octan-4-yl)amino)nicotinate], for which the pKd was 5.00 to 6.00.

In turn, `Cc1cc(C#N)nc(N[C@H]2[C@H]3OC[C@](CO)(O3)[C@H](O)[C@@H]2O)n1` [A38, 2-[[(1S,2R,3R,4R,5S)-2,3-dihydroxy-1-(hydroxymethyl)-6,8-dioxabicyclo[3.2.1]octan-4-yl]amino]-6-methyl-pyrimidine-4-carbonitrile] gave a pKd of 5.00 to 6.00.

With `O[C@@H]1[C@H](O)[C@@H](Nc2cncc(C(F)(F)F)n2)CO[C@@H]1CNc1cnccn1` [A122], the pKd was greater than 6.00.

For the molecule `O=C(O)COCCOCC(=O)NC(COCCC(=O)NCCOCCOCCOCCOC[C@H]1OC[C@H](Nc2nccc(C(F)(F)F)n2)[C@@H](O)[C@H]1O)COCCC(=O)NCCOCCOCCOCCOC[C@H]1OC[C@H](Nc2nccc(C(F)(F)F)n2)[C@@H](O)[C@H]1O` [A24, 1-((2R,3R,4R,5S)-3,4-dihydroxy-5-((4-(trifluoromethyl)pyrimidin-2-yl)amino)tetrahydro-2H-pyran-2-yl)-20-(1-((2R,3R,4R,5S)-3,4-dihydroxy-5-((4-(trifluoromethyl)pyrimidin-2-yl)amino)tetrahydro-2H-pyran-2-yl)-15-oxo-2,5,8,11,18-pentaoxa-14-azanonadecan-19-yl)-15,22-dioxo-2,5,8,11,18,24,27-heptaoxa-14,21-diazanonacosan-29-oic acid], the negative-log Kd (pKd) is greater than 7.00.

`OC[C@H]1O[C@H](OCC2CO2)[C@H](Nc2nccc(C(F)(F)F)n2)[C@@H](O)[C@H]1O` (stereo partly drawn) [A76, (2R,3R,4R,5R,6S)-2-(hydroxymethyl)-6-(oxiran-2-ylmethoxy)-5-((4-(trifluoromethyl)pyrimidin-2-yl)amino)tetrahydro-2H-pyran-3,4-diol] had a negative-log Kd (pKd) greater than 6.00.

As for `[N-]=[N+]=NC[C@H]1OC[C@H](Nc2cncc(C(F)(F)F)n2)[C@@H](O)[C@H]1O` [A86, (2R,3R,4R,5S)-2-(azidomethyl)-5-((6-(trifluoromethyl)pyrazin-2-yl)amino)tetrahydro-2H-pyran-3,4-diol], the pKd was greater than 6.00.

In turn, `OC[C@H]1OC[C@H](Nc2ccc(F)c(C(F)(F)F)n2)[C@@H](O)[C@H]1O` [A82, (2R,3R,4R,5S)-5-((5-fluoro-6-(trifluoromethyl)pyridin-2-yl)amino)-2-(hydroxymethyl)tetrahydro-2H-pyran-3,4-diol] showed a negative logarithm of the Kd (pKd) of 5.00 to 6.00.

As for `OC[C@@]12CO[C@@H](O1)[C@H](Nc1ncc(C(F)(F)F)c(Cl)n1)[C@@H](O)[C@H]2O` [A115, (1S,2R,3R,4R,5S)-4-((4-chloro-5-(trifluoromethyl)pyrimidin-2-yl)amino)-1-(hydroxymethyl)-6,8-dioxabicyclo[3.2.1]octane-2,3-diol], the pKd is greater than 6.00.

For the molecule `N#Cc1cc(N[C@H]2[C@H]3OC[C@](CO)(O3)[C@H](O)[C@@H]2O)cnc1Cl` [A41, 2-chloro-5-[[(1S,2R,3R,4R,5S)-2,3-dihydroxy-1-(hydroxymethyl)-6,8-dioxabicyclo[3.2.1]octan-4-yl]amino]pyridine-3-carbonitrile], the pKd was 5.00 to 6.00.

As to `C[C@@H]1O[C@H](CO)[C@H](O)[C@H](O)[C@H]1Nc1nc(Cl)ns1` [A56, (2R,3R,4R,5R,6S)-5-((3-chloro-1,2,4-thiadiazol-5-yl)amino)-2-(hydroxymethyl)-6-methyltetrahydro-2H-pyran-3,4-diol], the negative logarithm of the Kd (pKd) was 5.00 to 6.00.

Molecule `OC[C@@]12CO[C@@H](O1)[C@H](Nc1nc(Cl)ncc1C(F)(F)F)[C@@H](O)[C@H]2O` [A114, (1S,2R,3R,4R,5S)-4-((2-chloro-5-(trifluoromethyl)pyrimidin-4-yl)amino)-1-(hydroxymethyl)-6,8-dioxabicyclo[3.2.1]octane-2,3-diol] gave a pKd greater than 6.00.

As for `CC(C)C[C@@H]1NC(=O)[C@@H](NC(=O)[C@@H](NC(=O)[C@H](CCC(N)=O)NC(=O)[C@H](Cc2cnc[nH]2)NC(=O)CCOCCOCCOCCOCCNC(=O)CCCc2cn(CCCCCC(=O)NC(COCc3cn(CCOCCOCCOCCOC[C@H]4OC[C@H](Nc5nccc(C(F)(F)F)n5)[C@@H](O)[C@H]4O)nn3)COCc3cn(CCOCCOCCOCCOC[C@H]4OC[C@H](Nc5nccc(C(F)(F)F)n5)[C@@H](O)[C@H]4O)nn3)nn2)C(C)C)CSSC[C@@H](C(=O)N[C@@H](Cc2ccccc2)C(=O)N[C@@H](CO)C(=O)N[C@H](C(N)=O)[C@@H](C)O)NC(=O)[C@H](C(C)C)NC(=O)[C@@H]2CCCN2C(=O)[C@H](CCCNC(=N)N)NC(=O)CNC(=O)[C@H](CCCNC(=N)N)NC(=O)[C@H](Cc2ccc(O)cc2)NC(=O)[C@H](CO)NC1=O` [Compound 57] ({X5-PEG4}-HQVCLSYRGRPVCFST-NH2; disulfide 4-13), the pKd was greater than 7.00.

As to `O=C(O)CC(=O)NC(COCCC(=O)NCCOCCOCCOCCOC[C@H]1OC[C@H](Nc2cncc(C(F)(F)F)n2)[C@@H](O)[C@H]1O)COCCC(=O)NCCOCCOCCOCCOC[C@H]1OC[C@H](Nc2cncc(C(F)(F)F)n2)[C@@H](O)[C@H]1O` [A34, 1-((2R,3R,4R,5S)-3,4-dihydroxy-5-((6-(trifluoromethyl)pyrazin-2-yl)amino)tetrahydro-2H-pyran-2-yl)-20-(1-((2R,3R,4R,5S)-3,4-dihydroxy-5-((6-(trifluoromethyl)pyrazin-2-yl)amino)tetrahydro-2H-pyran-2-yl)-15-oxo-2,5,8,11,18-pentaoxa-14-azanonadecan-19-yl)-15,22-dioxo-2,5,8,11,18-pentaoxa-14,21-diazatetracosan-24-oic acid], the negative logarithm of the Kd (pKd) was greater than 7.00.

Regarding `C[C@@H]1O[C@H](CO)[C@H](O)[C@H](O)[C@H]1N=[N+]=[N-]` [A50, (2R,3R,4R,5R,6S)-5-azido-2-(hydroxymethyl)-6-methyltetrahydro-2H-pyran-3,4-diol], the pKd is less than 4.70.

Values taken from patent US12091402B2 (Avilar Therapeutics, Inc., priority 2021, dated 2024).
